Results from patent publication US20100279409A1, “METHOD FOR MODIFYING CELLUAR IMMUNE RESONSE BY MODULATING ACTIVIN ACTIVITY” (priority 2007, published 2010).

What was measured:
NK cells [1] = test: NK cell viability by caspase and PI staining; type: cell-based, human; settings: 24 hours
Description: With respect to testing viability, 1×10^5 purified NK cells were cultured as described supra, in 96 well-plates. After 24 hours of culture, cells were stained with antibodies to polycaspase, caspase 3/7, caspase 8 and PI.

CD8+ T cells = test: Purified CD8+ T cell activation and expansion with recombinant activin-A; type: cell-based, human; settings: anti-CD3/CD28 beads, activin-A 0, 10, 100 ng/ml, 24 or 72 hours
Description: To test this, CD8^+ T cells were purified and labeled with carboxy fluorescein succinimidy/ester (“CFSE” hereafter). These cells were cultured in wells, at 1×10^5 cells/well, in standard medium supplemented with 20 U/ml of IL-2, either with or without anti-CD3/CD28 bead stimulation, in the presence of increasing doses of commercially available, recombinant activin-A (0, 10, and 100 ng/ml), for 24 or 72 hours. Cell division was assessed over time by flow cytometry and IFN-γ production via a standard ELISA.

Human NK cells [2] = test: IFN-γ ELISA of purified NK cells; type: cell-based
Description: A total of 1×10^5 highly purified human NK cells were cultured for 20 hours in medium supplemented with 20 U/ml IL-2, and 10 ng/ml IL-12. Either human recombinant activin-A, or TGF-β was added to the cultures, at concentrations of 10, 50 and 100 ng/ml. Supernatants were then tested for IFN-γ via ELISA, using standard methods. In these experiments 1×10^5 highly purified human NK cells were cultured as above, but were cultured with Poly I:C (10 μg/ml), or LPS (100 ng/ml), with or without 10, 50, or 100 ng/ml of recombinant human activin-A. In some cases, the known compound “SB431542,” which blocks activin-A binding to receptors was added. IFN-γ was then measured via ELISA, or by intracellular cytokine staining after 16 hours of culture, via addition of 1 μg/ml BFA, to prevent cytokine release. The impact of activin-A on production of IFN-γ by NK cells, in the absence of dendritic cells, was ascertained. Purified NK cells (1×10^5) were cultured in 96 well-plants, in media that was supplemented with 20 U/ml IL-2 and 10 ng/ml, IL-12, in the absence of, or with increasing concentrations of either activin-A, or TGF-β. Culture supernatants were assayed for IFN-γ after 24 hours of culture, using ELISAs, as described supra. As in the prior experiments, 1×10^5 purified NK cells were cultured in media supplemented with IL-2 only, or IL-2 plus IL-12, either with or without one of poly I:C or LPS, in the presence or absence of increased levels of activin-A.

Human NK cells [3] = test: Western blot for Smad 2/3 in NK cells; type: cell-based; settings: ex vivo purified NK cells, 50 ng/ml activin-A, 4 hours
Description: Human NK cells were highly purified, following standard methods; and were either lysed immediately or cultured for 20 hours in medium that had been supplemented with 20 U/ml IL-2, either with or without 10 ng/ml of IL-12, or with or without the toll like receptor 3 ligand Poly I:C, 5×10^5, lysed immediately, and then assayed for ALK-4 (an activin type I receptor), and RITA (an activin type II receptor), via qRT-PCR. In parallel, 1×10^5 highly purified NK cells were cultured in medium supplemented with 20 U/ml IL-2, with or without 50 ng/ml of recombinant human activin-A. Cells were harvested after 4 hours, and Western blotting was carried out for Smad 2/3 and β-actin.

C57/B6 mice = type: in vivo, mouse; settings: 100 ng activin-A subcutaneously, live influenza virus intraperitoneally, day 7
[4] = system: NK cells (target cells K562 or Jurkat cells); test: NK cell killing of calcein-labeled target cells; type: cell-based, human; settings: 100 ng/ml, 3 days culture, K562 or Jurkat targets, 4 hours
Description: 1×10^6 purified NK cells were cultured in 24 well-plates, either with a high dose of IL-2 (100 U/ml), or a combination of 20 U/ml of IL-2 and IL-12. The culturing took place in the absence of either of activin-A or TGF-β or 100 ng/ml of one of them. The culture continued for 3 days.
After the 3 days of culture, the NK cells were combined with target cells K562 or Jurkat cells, at effector (NK cells): target (K562 or Jurkat cells) ratios of 5:1, 2:1, and 0.1:1. The target cells had been labeled with calcein previously. The total number of labeled target cells was 2×10^4, and the mixture was incubated for 4 hours. The efficiency of killing was determined by measuring calcein dye release via spectrometry.

Human NK cells [5] = test: CFSE division assay of NK cells; type: cell-based; settings: 5 days, activin-A 100 ng/ml
Description: In these experiments, 1×10^5 highly purified human NK cells were labeled with CFSE, and cultured for 5 days in medium supplemented with 20 U/ml IL-2 and 10 ng/ml IL-12, either with or without Poly I:C or LPS, either with or without 100 ng/ml of human recombinant activin-A. Cellular division was assessed by determining loss of CFSE intensity using known, flow cytometric methods.

NK cells [6] = test: qRT-PCR of NK cell gene expression; type: cell-based, human; settings: 16 hours
Description: In a second set of experiments, 5×10^5 purified NK cells were cultured as described herein, in 24 well-plates and were then collected, and lysed after 16 hours of culture.
The lysates were treated to extract the mRNA, which was then subjected to qRT-PCR to determine expression of each of T-bet (a transcription factor), IFN-γ, perforin, granzyme A, and granzyme B.

NK cells [7] = test: Multiplex cytokine and chemokine array of NK cell supernatants; type: cell-based, human; settings: activated NK cells
Description: The analysis reported supra was extended to an analysis of the supernatants produced during the various cell culture experiments. A multiplex array system for chemokines and cytokines were used, as was a standard ELISA for measuring IFN-γ. Bead arrays were used to quantify each of IFN-γ, IL-1 IL-6, IL-8, IL-10, TNF-α, GM-CSF, IP-10, MCP-1, MIP-1α, and 1β. Levels of production were measured using standard methodologies.

**Q.** activin-A was tested. Which “apoptosis (polycaspase, caspase 3/7, caspase 8, PI staining)” value (NK cells [1]) did it give?
**A.** no indication of apoptosis

**Q.** What about the “CD8+ T cell ability to generate IFN-γ” value (CD8+ T cells) of the same substance?
**A.** did not regulate

**Q.** And the “CD8+ T cell division” value (CD8+ T cells)?
**A.** did not regulate

**Q.** What about the IFN-γ production (Human NK cells [2]; NK cells stimulated with Poly I:C, activin-A 10, 50, 100 ng/ml) of the same substance?
**A.** suppressed IFN-γ production

**Q.** What about the IFN-γ production (Human NK cells [2]; NK cells, IL-2 and IL-12, 20 hours, 10, 50, 100 ng/ml) of the same substance?
**A.** as effective as TGF-β in suppressing the production of IFN-γ

**Q.** And the IFN-γ production (Human NK cells [2]; NK cells, IL-2 and IL-12, 24 hours, increasing concentrations)?
**A.** as potent as TGF-β in inhibiting IFN-γ production

**Q.** And the IFN-γ production (Human NK cells [2]; NK cells, IL-2 plus IL-12 with poly I:C or LPS, increased levels of activin-A)?
**A.** suppressed by addition of activin-A, in a concentration dependent manner

**Q.** What about the “intracellular Smad 2/3 levels” value (Human NK cells [3]) of the same substance?
**A.** enhanced intracellular Smad 2/3 levels

**Q.** What about the “peptide specific CD8+ IFN-γ+ T cell response” value (C57/B6 mice) of the same substance?
**A.** suppressed

**Q.** And the “killing ability of NK cells” value [4]?
**A.** had no impact whatsoever

**Q.** What about the “division and proliferation of NK cells” value (Human NK cells [5]; IL-2, IL-12, LPS) of the same substance?
**A.** very strongly suppressed

**Q.** What about the “division and proliferation of NK cells” value (Human NK cells [5]; IL-2, IL-12, Poly I:C) of the same substance?
**A.** very strongly suppressed

**Q.** And the “IFN-γ mRNA expression” value (NK cells [6])?
**A.** inhibited expression of T-bet and IFN-γ significantly

**Q.** What about the “T-bet mRNA expression” value (NK cells [6]) of the same substance?
**A.** inhibited expression of T-bet and IFN-γ significantly

**Q.** And the “perforin, granzyme A and granzyme B mRNA expression” value (NK cells [6])?
**A.** had no effect

**Q.** What about the GM-CSF production (NK cells [7]) of the same substance?
**A.** suppressed

**Q.** And the “IFN-γ production (bead array)” value (NK cells [7])?
**A.** suppressive effect

**Q.** What about the IL-1β production (NK cells [7]) of the same substance?
**A.** suppressed

**Q.** What about the IL-6 production (NK cells [7]) of the same substance?
**A.** suppressed

**Q.** What about the IL-8 production (NK cells [7]) of the same substance?
**A.** suppressing

**Q.** And the IL-10 production (NK cells [7])?
**A.** increased the low amounts of IL-10 that had been produced, significantly

**Q.** What about the IP-10 production (NK cells [7]) of the same substance?
**A.** suppressing

**Q.** What about the MIP-1α production (NK cells [7]) of the same substance?
**A.** suppressing

**Q.** What about the MIP-1β production (NK cells [7]) of the same substance?
**A.** suppressing

**Q.** And the TNF-α production (NK cells [7])?
**A.** suppressed
